From patent US9879043B1, “Synthesis of non-natural cofactor analogs of S-adenosyl-L-methionine using methionine adenosyltransferase” (University of Kentucky Research Foundation, priority 2013, dated 2018) come the findings set out here.

Type in all cases: biochemical
In test [1] the target is Escherichia coli MAT (eMAT) (Escherichia coli, UniProt P0A817). In words: MAT assay, turnover of S/Se-Met analogs to S(Se)AM analogs (RP-HPLC end point). Particulars: 2 mM Met analog, 1 mM ATP, 5 μM MAT, pH 8, 4 h, 37° C., average of two assays.
For test [2], the target named is human MAT II catalytic alpha and regulatory beta subunit (hMAT2) (Homo sapiens, UniProt P31153). Described as above. Particulars: 2 mM Met analog, 1 mM ATP, 5 μM MAT, pH 8, 4 h, 37° C.; average of two assays.
The target in test [3] is human MAT II catalytic alpha subunit alone (hMAT2A) (Homo sapiens, UniProt P31153). Described as above. Particulars: 2 mM Met analog, 1 mM ATP, 5 μM MAT, pH 8, 4 h, 37° C., average of two assays.
Test [4] concerns the target human MAT I catalytic subunit alpha (hMAT1A) (Homo sapiens, UniProt Q00266). Described as above. The note with it: 2 mM Met analog, 1 mM ATP, 5 μM MAT, pH 8, 4 h, 37° C.; average of two assays.
Test [5] has as its target T1, Methanocaldococcus jannaschii MAT (mMAT) (Methanocaldococcus jannaschii, UniProt Q58605).
T1 sequence (Q58605 1-406): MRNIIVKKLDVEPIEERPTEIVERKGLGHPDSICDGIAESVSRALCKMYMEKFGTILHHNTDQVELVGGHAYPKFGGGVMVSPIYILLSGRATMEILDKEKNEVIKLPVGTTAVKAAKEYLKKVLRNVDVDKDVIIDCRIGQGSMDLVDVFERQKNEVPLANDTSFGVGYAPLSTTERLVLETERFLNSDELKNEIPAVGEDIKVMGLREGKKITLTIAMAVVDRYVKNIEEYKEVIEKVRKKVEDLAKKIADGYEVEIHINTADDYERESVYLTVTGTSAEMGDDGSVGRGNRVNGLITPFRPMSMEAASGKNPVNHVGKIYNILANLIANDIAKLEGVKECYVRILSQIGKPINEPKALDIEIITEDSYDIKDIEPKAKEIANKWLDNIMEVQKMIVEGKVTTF
Particulars: 2 mM Met analog, 1 mM ATP, 5 μM MAT, pH 8, 4 h, 65° C.; average of two assays.

Structures are written as SMILES.

Take `CCSCC[C@H](N)C(=O)O` [compound 3, (2S)-2-amino-4-(ethylsulfanyl)butanoic acid]: the “Percentage Turn-over eMAT” value came to 8% in test [1] and 10% in test [1] (listed as ethionine). In addition, the “Percentage Turn-over hMAT2” value in test [2] is on record as 88%. The “Percentage Turn-over hMAT2A” value in test [3] is recorded as 90%; in test [3] (listed as ethionine), around 100%. In test [4], the “Percentage Turn-over hMAT1A” value worked out at 75%. In addition, the “Percentage Turn-over mMAT” value in test [5] was found to be 94%.
